# Assay results taken from patent US6884777B1, “Method for treating respiratory distress syndrome” (The Nemours Foundation, priority 2000, dated 2005).
# Tests used:
# [1] = test system: pregnant rats; assay: Antenatal treatment of pregnant rats: weight of maternal and fetal lungs; assay type: in vivo, rat; settings: delivery at d18; for Weight fetal lung (g)/g fetus / Average weight fetal lungs: antenatal treatment 48 h; for Average weight fetal lungs: n = 9; for increase of average fetal lung weight in relation to body weight: i.p. at d16 of gestation and 24 h later, leptin 1 mg/kg, dexamethasone 6 mg/kg, vs control
# Description: Leptin (1 mg/kg body weight) was administered to pregnant rats at d16 of gestation and 24 h later by intraperitoneal injection. Dexamethasone at 6 mg per kg body weight was administered at similar time intervals as leptin. In addition, the effect of a combination of leptin and dexamethasone treatment was tested. After 48 h of leptin, dexamethasone or leptin/dexamethasone exposure, premature delivery of the rat pups was induced at d18, which is similar to 30 weeks of gestation in the human. The fetuses from each litter were pooled and weighed, and various tissues from both the rat fetuses and mothers were also dissected and weighed. […] Antenatal treatment with dexamethasone increased fetal lung weight by 41%.
# [2] = test system: SP-B (surfactant protein-B); assay: Western blot of SP-B in 21-day gestation fetal rat lung explants cultured with leptin; assay type: cell-based; settings: d21 explants
# Description: FIG. 1 is a Western blot analysis of SP-B (surfactant protein-B) from 21-day gestation, fetal rat lung explants cultured in the presence or absence of leptin. Fetal lung explants were exposed to either (A) 1 ng/ml or (B) 10 ng/ml leptin from initiation of culture (day 0). Explants were harvested and protein extracts were prepared on days (d) 1, 2, and 3 of culture. Western blots were probed with an antibody specific to rat SP-B.
# We have used a fetal lung explant model to mimic the conditions of the premature lung. Lungs from d21 rat fetuses, term being 22 days, were dissected free of heart, trachea and bronchi and placed in ice-cold serum free Waymouth medium and cut into 1 mm^3 pieces on a McIlwain tissue chopper. The lung explants were placed in tissue culture dishes that were scratched (along each half) to facilitate attachment of explants. The excess medium was aspirated and fresh medium (2 ml for 60 mm plate) was gently placed on the explants. The 17-21 d explants were incubated in 95% O2-5% CO2, since incubation of these explants in 5% CO2 in air can cause compression of airways (Gross and Wilson, J. Appl. Physiol. 55: 1725-32, 1983). The petri dishes were placed on a tilting platform and allowed to rest for 90 min in a humidified atmosphere in a CO2 incubator. Thereafter, the plates were tilted at 34 cycles per minute so that during each cycle, one half of the petri dish was exposed to gas phase and the other half was covered with the medium. Leptin at either 1 or 10 ng/ml was added to the explant cultures on the day of establishment of the culture (day 0). The explants were cultured for varying periods of time for up to 3 days, and protein extracts were prepared to establish a time course for leptin effects on the fetal lung. Surfactant proteins were separated by electrophoresis on 15% polyacrylamide—SDS gels, and transferred to nitrocellulose membranes by electroblotting. The membranes were blocked with 2% gelatin (BioRad), treated overnight with anti-SP-B, and then with secondary antibody (goat anti-rabbit HRP-conjugated antibody). […]
# [3] = test system: SP-A, SP-B, SP-C mRNA; assay: RT-PCR of surfactant protein mRNA in day 17 fetal lung explant cultures; assay type: cell-based, rat; settings: 1 ng/ml leptin
# Description: Cultures were exposed to 1 ng/ml leptin (lanes 3, A-C) or control medium (lanes 2, A-C), and total RNA was isolated at the indicated day of culture. Total RNA was reverse transcribed and amplified with both β-actin and […] PCR primers. In each figure, lane 1 is the time of initiation of culture (day 0). Low levels of all surfactant RNAs were detected in the uncultured cells (lanes 1, A-C). The size of the β-actin RT/PCR product is 492 bp; the size of SP-A is 352 bp; SP-B is 201 bp, and SP-C is 284 bp.
# Qualitative RT/PCR detection of surfactant mRNA was performed using the Ambion QuantumRNA kit (Ambion, Austin, Tex.) and 1 μg of total RNA isolated from explants cultured for 3 days in culture. Lanes 1, 3,5: control day 3; lanes 2, 4, 6: 1 ng/ml leptin day 3.
# To explore the effect of gestational age on surfactant production in response to leptin, we exposed younger lung explant cultures (d17) to 1 ng/ml leptin. Total RNA was extracted by homogenizing the explants in 4M guanidine thiocyanate, applying the lysate on a Qiagen RNeasy column (Qiagen, Chatsworth, Calif.), and recovering total RNA according to the manufacturer's instructions. RNA was quantified by measurement of absorbancy at 260 nm (A260). The quality of RNA was assessed by the A260/A280 ratio and by separation on agarose gels. Total RNA (1 μg) was brought up to 10 μl in DEPC-treated water. The sample was heated to 75° C. for 3 min, placed on ice, and cDNA synthesis was performed by reverse transcription for 15 min at 42° C. in a 20 μl reaction containing 1×PCR buffer II (Perkin-Elmer), 5 mM MgCl2, 1.25 mM each dNTP, 1 U/μl RNasin (Promega), 12.5 μg/μl oligo (dT) 15, and 2.5 U/μl AMV reverse transcriptase (Promega Madison, Wis.). Subsequent amplification of the cDNA sequence was performed with 10 μl of the reverse transcription reaction in 1×Taq buffer, 5% DMSO, 25 pmol each primer (Table 1), and 1.25 U Taq polymerase in a 50 μl reaction volume.
# For assessment of the relative levels of SP-A, SP-B and SP-C transcripts, a multiplex RT/PCR reaction with β-actin was used. The temperature profile for the PCR reactions consisted of a 2 min melting step at 95° C., then 30 cycles of 30 s at 94° C., 30 s at 55° C., and 60 sec at 65° C., followed by a final extension step of 5 min at 72° C. RT-PCR products were separated by size on a 4% agarose gel and stained with ethidium bromide. Gel visualization and quantitative analysis of relative band intensities was performed using Eagle Eye II hardware and software (Stratagene, La Jolla, Calif.).
# However, leptin also increases the levels of P-actin in fetal lung explant cultures. […] Therefore, we chose to use 18S rRNA to determine the relative levels of surfactant mRNA because of the invariant expression of 18S rRNA across tissues and treatments. Since 18S rRNA is much more abundant than any mRNA species, modified 18S rRNA primers called competimers (Ambion) are used that cannot be extended by Taq polymerase. By adjusting the ratio of competimers to normal 18S rRNA primers, the RT/PCR signal for 18S rRNA can be decreased to the level of even rare messages, as described by the manufacturer. […] These experiments support the hypothesis that leptin has an effect on the maturation of type II alveolar cells.
# [4] = test system: leptin receptor OB-Rb mRNA; assay: RT-PCR of leptin receptor expression in day 17 fetal lung explant cultures; assay type: cell-based, rat; settings: d17 fetal lung explants, 3 days; 1 ng/ml leptin or 10 nM dexamethasone
# Description: FIG. 4 depicts RT-PCR analysis of leptin receptor expression in day 17 fetal lung explant cultures. Total RNA was reverse transcribed and amplified with either the short (OB-Ra) or the long (OB-Rb) form of the leptin receptor. Day 0 (Cd0) represents the time of initiation of culture. The fetal lung explants were exposed for 3 days to either control medium (Cd3), 1 ng/ml leptin (Ld3), or 10 nM dexamethasone (Dexd3). The size of the OB-Ra RT/PCR product is 479 bp and OB-Rb is 262 bp.
# To explore the effect of gestational age on surfactant production in response to leptin, we exposed younger lung explant cultures (d17) to 1 ng/ml leptin. Total RNA was extracted by homogenizing the explants in 4M guanidine thiocyanate, applying the lysate on a Qiagen RNeasy column (Qiagen, Chatsworth, Calif.), and recovering total RNA according to the manufacturer's instructions. RNA was quantified by measurement of absorbancy at 260 nm (A260). The quality of RNA was assessed by the A260/A280 ratio and by separation on agarose gels. Total RNA (1 μg) was brought up to 10 μl in DEPC-treated water. […]
# [5] = test system: isolated type II alveolar cells; assay: RT-PCR of surfactant and GAPDH mRNA in cultured isolated fetal type II alveolar cells; assay type: cell-based, rat; settings: 1 ng/ml leptin, 24 h, d19 type II cells
# Description: FIG. 5 depicts RT-PCR analysis of surfactant and GADPH (glyceraldehyde phosphate dehydrogenase) mRNA expression in cultured isolated type II alveolar cells. Cells were exposed to either 1 ng/ml leptin (1 L) or 10 ng/ml leptin (10 L). Control cells were not exposed to leptin.
# To determine if the leptin effect on surfactant production was due to a direct effect of leptin on the type II alveolar cell, we determined whether the effects of leptin could be reproduced in isolated type II alveolar cells in culture. Alveolar type II cells were obtained from the lungs of 19-d gestation fetal rats by the method described by Bhandari et al., (Pediatr. Res. 41:166-71, 1997). In brief, lungs of 19-day gestation fetal rats were removed, dissected free of connective tissue and nonparenchymal pulmonary tissue, and cultured as explants for 40-48 h in serum free Waymouth MB 752/1 medium with penicillin and streptomycin in humidified 95% O2/5% CO2 at 37° C. […] The explant cells were then harvested and the cells dissociated using a solution of collagenase, trypsin and DNase. The mixed cell suspension was subjected to three differential adhesions to remove fibroblasts. The non-adherent suspension containing an enriched population of fetal type II cells was plated at 2×10^6 cells/35 mm dish in 2 ml of minimum essential medium containing penicillin (100 U/ml), kanamycin ([…]) and 2% fetal bovine serum. The cells were cultured for 20-22 h at 37° C. in […] (Bhandari et al., Pediatr. Res. 41:166-71, 1997). Cultures contain 90-95% type II cells of which >99% are viable as determined by exclusion of the vital dye, trypan blue. The usual yield of type II cells from the lungs of the fetuses (10-16) per pregnant rat is approximately 10^7 cells.
# Type II cells from d19 fetal lungs were cultured for 24 h and then exposed to either 1 or 10 ng/ml leptin for 24 h. Total RNA was isolated from these cells and then examined for SP-A, SP-B, SP-C, and GAPDH (housekeeping gene) mRNA expression.
# [6] = test system: type II alveolar cells; assay: Histologic analysis of fetal lung after antenatal treatment (alkaline phosphatase staining); assay type: in vivo, rat; settings: antenatal treatment for 48 h, alkaline phosphatase staining (FIG. 6)
# Description: FIG. 6 depicts the effect of antenatal treatment with leptin or dexamethasone on fetal lung morphology. Fetal lung sections were stained with a histochemical stain for alkaline phosphatase, which identifies type II cells. Control, no leptin; dexamethasone (6 mg/ml for 48 h); leptin (0.25 mg/ml for 48 h).
# Histologic analysis of the lung tissue was done to determine the basis for the increased fetal lung weight. Type II cells were identified by alkaline phosphatase staining as previously described (Post and Smith, Am. Rev. Respir. Dis. 137: 525-30, 1988). Unfixed frozen 5 μm sections of fetal lung tissue were stained histochemically with alkaline phosphatase at pH 8.74 to identify type II alveolar cells. Slides were incubated for 60 minutes at 37° C. in 25 ml of 0.2M Tris-HCl buffer and 25 ml of deionized water, 5 mg of Naphthol AS-BI phosphate, 0.1 ml dimethylformamide, and 30 mg of fast red TR. The slides were then rinsed in 3 changes of deionized water, counterstained for 30 seconds in Harris hematoxylin and blued in running water for 3-5 minutes. Slides were mounted from water in Advantage™.
# [7] = test system: ob/ob mice; settings: cited from earlier work
# [8] = test system: cornea from normal rats; settings: but not fa/fa Zucker rats, Sierra-Honigmann et al.; cited from earlier work
# [9] = d17 explants, multiplex RT/PCR with β-actin (FIG. 2)
# [10] = d17 lung explants, 3 days in culture
Molecule,Weight fetal lung (g)/g fetus [1],Average weight fetal lungs [1],increase of average fetal lung weight in relation to body weight [1],"SP-B production ([2]; 1 ng/ml leptin, 48 or 72 h exposure, vs control cultures)","SP-B levels ([2]; 10 ng/ml leptin, 48 and 72 h)","SP-B production ([2]; 10 ng/ml leptin, 24 h)","SP-A mRNA levels [3, 9]","SP-C mRNA levels [3, 9]","SP-A mRNA level relative to 18S rRNA, increase [3, 10]","SP-B mRNA level relative to 18S rRNA, increase [3, 10]","SP-C mRNA level relative to 18S rRNA, increase [3, 10]",levels of β-actin ([3]; fetal lung explant cultures (FIG. 2)),OB-Rb mRNA levels [4],SP-A mRNA levels [5],SP-B mRNA levels [5],SP-C mRNA levels [5],number of type II alveolar cells in fetal lung [6],respiratory depression ([7]; O'Donnell et al. 1999),volume-dependent decrease in lung compliance ([7]; Tankersley et al. 1998),neovascularization in cornea [8]
"C[C@@H]1C[C@H]2[C@@H]3CCC4=CC(=O)C=C[C@]4(C)[C@@]3(F)[C@@H](O)C[C@]2(C)[C@@]1(O)C(=O)CO [Dexamethasone, dexamethasone, reference compound]",0.52 g/g fetus,0.79 (n = 9) g,41%,–,–,–,–,–,–,–,–,–,–,–,–,–,–,–,–,–
leptin,0.56 g/g fetus,0.87 (n = 9) g,51%,increases SP-B production above that of the control cultures,decreases SP-B levels,increases SP-B production,significantly increases,significantly increases,1.6 fold,5 fold,2 fold,increases,decreases,increased,increased,increased,increase in the number of type II alveolar cells,prevent respiratory depression,ameliorated,induces neovascularization
